Consider 1 compound from patent US20160363580A1, “Methods of Metabolic Kinetic Phenotyping and Uses Thereof” (The Texas A&M University System, priority 2015, published 2016).

The data set in a line: Pulse tracer protocol (bolus L-[15N]-Phe), two compartmental model of Phe kinetics. The data set is classed as in vivo, pigs. Conditions: for EC Phe pool (extracellular Phe pool, Q1) / Flux of Phe between intra- and extracellular pool (F12, F21) / Frac. irr. loss (fractional irreversible loss of Phe from the intracellular pool, k02) / IC Phe pool (intracellular Phe pool, Q2) / IC Phe release (fractional intracellular release to extracellular pool, k12) / IC Phe uptake (fractional intracellular uptake from extracellular pool, k21) / Irr. loss (irreversible loss of Phe from the intracellular pool, F02): mean±SEM; for Q1 plasma pool size, mean value: SAAM II fit. Here is the method: Female Yorkshire cross/domestic pigs (20-25 kg BW) were used in the experimental studies. The pigs were housed in steel pens (2 m×3 m) in a controlled housing facility with large animal cubicle at room temperature 22-24° C. with 12 hours light-dark cycle. The pigs were fed with standardized food 1 kg/day (Harlan Teklad Vegetarian Pig/Sow Grower)) and provided water ad libitum.
Animals received catheters and a jejunal stoma during a surgical procedure. During midline laparotomy, catheters were placed into the abdominal aorta for blood sampling, and in the caval vein for administering post-surgery medication and experiment related tracer infusions. A second arterial catheter was placed to monitor mean arterial blood pressure (MAP). A Swan ganz catheter (5 Fr, #132F5, Edwards life sciences, Irvine, Calif., USA) was placed via the right jugular vein to monitor mean pulmonary blood pressure (MPAP). Both preoperative and postoperative cares were standardized. During the recovery period (7-10 days) animals were accustomed to a small movable cage (0.9×0.5×0.3 m). The experiments were performed in this cage on awake animals. This study was approved by the animal experiment ethics committee of University of Arkansas Medical Sciences.
For the induction of sepsis, a live Pseudomonas aeruginosa (PM) human strain is used (IRS 12-4-4, Shriners burns institute, University of Texas Medical Branch, Galveston). Originally, this PM strain was isolated from a burnt patient at Brook Army Medical Center in San Antonio, Tex. Based on pilot virulence experiment, 10^9 Colony Forming Units per hour (CFU/hour) in a volume of 1 ml 0.9% NaCl solution was needed to obtain similar cardiovascular responses and hemodynamic variables with characteristics of severe hyperdynamic sepsis. Hemodynamics was continuously monitored to ensure that the hyperdynamic state was kept in the expected ranges for severe sepsis (body temp increase of 2-3° C., respiratory rate increased, MPAP increased but <35 mmHg, heart rate increased but <200 BPM).
The experiment started after a recovery period of 7-10 days. Four hours after the last food intake (half of the daily amount: 0.5 kg), animals were selected from the Sepsis group or the Healthy group in a randomized fashion. […] At T=0 h, sepsis was induced to the sepsis group by continuous infusion of Pseudomonas aeruginosa (PM, 10^9 CFU/ml/hour), while the Healthy group received an equal volume of 0.9% NaCl solution. Fluid resuscitation (30 ml/kg bw/hour) was also started at T=0 h and hemodynamics were monitored continuously. The results for the primed-continuous tracer protocol (PC) and the pulse tracer protocol were compared between 17 and 18 hours after the start of Pseudomonas aeruginosa. At t=18 h, the pigs were euthanized with 125 mg/k pentobarbital sodium and 16 mg phenytoin sodium (Euthanasol®).
Two stable isotopes of Phe: L-[ring-^13C6]-Phe and L-[^15N]-Phe (Cambridge Isotopes, Andover, Mass.) were used as tracers to study whole body rate of appearances of Phe (WbRa) with two tracer infusion protocols. Phe has been used to determine whole body protein breakdown. Previously studies were conducted based on the prime amount and tracer infusion rates. For the primed-continuous infusion protocol (PC), L-[ring-^13C6]-Phe was used. The prime (1.58 μmol/kg bw) and infusion (4.32 μmol/kg bw/hour) was given respectively in a volume of 2 ml/kg bw and 2 ml/kg bw/hour. It started 12 hours after the start of Pseudomonas aeruginosa, which is also 5 hours before the pulse protocol (PULSE). The L-[^15N]-Phe (26.3 μmol/kg bw in a volume 0.5 ml/kg bw) was used for the pulse protocol. All tracers are given via the central caval vein catheter.
Blood samples were taken and directly cooled on ice. The blood samples were processed within one hour. For amino acid concentration and enrichment analysis, heparinized blood was centrifuged at 4° C., 8000 G for 5 minutes. […]

For `N[C@@H](Cc1ccccc1)C(=O)O` [Phe, phenylalanine], where the note is “Healthy pigs”, the “k02 proportionality constant, mean value” amounted to 0.033 min⁻¹; the “k12 proportionality constant, mean value” came out at 0.051 min⁻¹; the “k21 proportionality constant, mean value” was 0.115 min⁻¹; the “Q1 plasma pool size, mean value” is 1121 µmol. Further, under “Healthy pigs n=9”, the “EC Phe pool (extracellular Phe pool, Q1)” value is on record as 44 ± 2.2 μmol/kg BW; the “Flux of Phe between intra- and extracellular pool (F12, F21)” value came to 5.02 ± 0.40 μmol/kg BW/min; the “Frac. irr. loss (fractional irreversible loss of Phe from the intracellular pool, k02)” value was 3.33 ± 0.21 %/min; the “IC Phe pool (intracellular Phe pool, Q2)” value stood at 105 ± 8.0 μmol/kg BW. Under “Healthy pigs n=9”, the “IC Phe release (fractional intracellular release to extracellular pool, k12)” value stood at 5.09 ± 0.69 %/min; the “IC Phe uptake (fractional intracellular uptake from extracellular pool, k21)” value is 11.5 ± 0.71 %/min; the “Irr. loss (irreversible loss of Phe from the intracellular pool, F02)” value came to 3.38 ± 0.10 μmol/kg BW/min. Moreover, for the setting “Sepsis pigs”, the “k02 proportionality constant, mean value” was determined as 0.028 min⁻¹; the “k12 proportionality constant, mean value” was determined as 0.044 min⁻¹; the “k21 proportionality constant, mean value” was found to be 0.105 min⁻¹; the “Q1 plasma pool size, mean value” came out at 1655 µmol. In addition, for the setting “Sepsis pigs n=13”, the “EC Phe pool (extracellular Phe pool, Q1)” value came to 63 ± 5.5 μmol/kg BW; the “Flux of Phe between intra- and extracellular pool (F12, F21)” value was 6.86 ± 0.42 μmol/kg BW/min; the “Frac. irr. loss (fractional irreversible loss of Phe from the intracellular pool, k02)” value is reported as 2.83 ± 0.15 %/min; the “IC Phe pool (intracellular Phe pool, Q2)” value is recorded as 157 ± 8.2 μmol/kg BW. Under “Sepsis pigs n=13”, the “IC Phe release (fractional intracellular release to extracellular pool, k12)” value came out at 4.43 ± 0.25 %/min; the “IC Phe uptake (fractional intracellular uptake from extracellular pool, k21)” value stood at 10.6 ± 0.76 %/min; the “Irr. loss (irreversible loss of Phe from the intracellular pool, F02)” value was found to be 4.33 ± 0.16 μmol/kg BW/min. Also, the “intracellular pool relative to extracellular pool” value (pigs) was determined as 2.2 times.
